Data on one compound can be found in patent publication US20030118577A1, “Use of analogues of superoxide dismutase for treating hepatocellular insufficiencies” (priority 2000, published 2003).

The nature of test [1]: Glutathione peroxidase activity of the mimetic. It is filed as biochemical. Conditions: observed by the inventors.
Test [2] relates to acute hepatic insufficiency induced by acetaminophen. As to the kind of experiment: Assay of serum transaminases ALAT and ASAT after acetaminophen. It counts as in vivo, mice. Conditions: MnTBAP 10 mg/kg 2 h before, after 24 hours. As for the experimental part:
The serum transaminases ALAT and ASAT are assayed 12 hours and 24 hours after the administration of acetaminophen.
Since the results risked being biased by the fact that the mice surviving 24 hours after the administration of acetaminophen were probably, regardless of the group involved, those which had the lowest transaminase activity, a second series of experiments were carried out, administering 500 mg/kg of acetaminophen, the other experimental conditions remaining the same. At this dosage, all the mice were still alive after 24 hours.
The results are illustrated by FIGS. 2A and 2B, which represent the ASAT and ALAT activity, respectively, according to the products administered.

SMILES strings stand for the structures.

Consider `O=C(O)c1ccc(-c2c3nc(c(-c4ccc(C(=O)O)cc4)c4ccc([n-]4)c(-c4ccc(C(=O)O)cc4)c4nc(c(-c5ccc(C(=O)O)cc5)c5ccc2[n-]5)C=C4)C=C3)cc1.[Mn+3]` [MnTBAP, Mn(III) tetrakis(5,10,15,20-benzoic acid)porphyrin], for which, in test [1], the glutathione peroxidase activity result was “possessed, in addition, a glutathione peroxidase activity”. Further, the “transaminase activities (ASAT, ALAT), fold lower than without MnTBAP” value in test [2] (acetaminophen 500 mg/kg (APAP500)) worked out at 10 fold; in test [2] (acetaminophen 1000 mg/kg (APAP1000)), 6 fold.
